Results published in ChEMBL document CHEMBL1649177, “Further identification of CTX-M-2 extended-spectrum beta-lactamase in Pseudomonas aeruginosa” (2009).
In brackets after ≈: the same amount, converted by molar mass. Activity calls are given as the source filed them. The calls are words filed in the database; no cut-off is given here.

Tested on: Pseudomonas aeruginosa
Test: Antimicrobial activity against extended spectrum beta-lactamase CTX-M-2-producing Pseudomonas aeruginosa isolate P6208 by Etest
Format: functional

| Compound | MIC [µg/mL] |
| --- | --- |
| CO/N=C(\C(=O)N[C@@H]1C(=O)N2C(C(=O)[O-])=C(C[N+]3(C)CCCC3)CS[C@H]12)c1csc(N)n1 [CEFEPIME] | > 256 |
| CO/N=C(\C(=O)N[C@@H]1C(=O)N2C(C(=O)O)=C(COC(C)=O)CS[C@H]12)c1csc(N)n1 [CEFOTAXIME] | > 32 |
| CC(C)(O/N=C(\C(=O)N[C@@H]1C(=O)N2C(C(=O)[O-])=C(C[n+]3ccccc3)CS[C@H]12)c1csc(N)n1)C(=O)O [CEFTAZIDIME] | 2 (≈ 3.66 µM) |
| C[C@@H](O)[C@H]1C(=O)N2C(C(=O)O)=C(SCCNC=N)C[C@H]12 [IMIPENEM ANHYDROUS] | 1 (≈ 3.34 µM) |

Tested on: Pseudomonas aeruginosa
Test: Antimicrobial activity against extended spectrum beta-lactamase CTX-M-2-producing Pseudomonas aeruginosa isolate P6208
Format: functional, organism-based

| Compound | Activity |
| --- | --- |
| NCC[C@H](O)C(=O)N[C@@H]1C[C@H](N)[C@@H](O[C@H]2O[C@H](CN)[C@@H](O)[C@H](O)[C@H]2O)[C@H](O)[C@H]1O[C@H]1O[C@H](CO)[C@@H](O)[C@H](N)[C@H]1O | Active |
| NC[C@H]1O[C@H](O[C@H]2[C@H](O)[C@@H](O[C@H]3O[C@H](CO)[C@@H](O)[C@H](N)[C@H]3O)[C@H](N)C[C@@H]2N)[C@H](N)C[C@@H]1O | Active |
| COLISTIN | Active |
| GENTAMICIN | Active |
